Assay results from the supplement of paper PMC4723716.
Structures can show the parent of a compound that is named as a salt.

Tested on: Plasmodium falciparum NF54 gametocytes
Conditions: 384, incubation time: 72 h
Protocol: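 Known antimalarials and MMV control compounds in dose response against each stage (I–V) […] The fitted EC50 is reported as IC50 in µM; '>' marks the top dose reached without a curve.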

[1] = gametocyte stage: Stage V Dose Response IC50 (µM), assay protocol: SaLSSA
[2] = gametocyte stage: Stage I Dose Response IC50 (µM), assay protocol: SaLSSA
[3] = gametocyte stage: Stage II Dose Response IC50 (µM), assay protocol: SaLSSA
[4] = gametocyte stage: Stage III Dose Response IC50 (µM), assay protocol: SaLSSA
[5] = gametocyte stage: Stage IV Dose Response IC50 (µM), assay protocol: SaLSSA
[6] = gametocyte stage: Stage I Dose Response IC50 (µM), assay protocol: TSSA
[7] = gametocyte stage: Stage IV Dose Response IC50 (µM), assay protocol: TSSA
[8] = gametocyte stage: Stage V Dose Response IC50 (µM), assay protocol: TSSA
[9] = gametocyte stage: Stage II Dose Response IC50 (µM), assay protocol: TSSA
[10] = gametocyte stage: Stage III Dose Response IC50 (µM), assay protocol: TSSA

Structure (SMILES) | IC50 of gametocyte viability [1] [µM] | IC50 of gametocyte viability [2] [µM] | IC50 of gametocyte viability [3] [µM] | IC50 of gametocyte viability [4] [µM] | IC50 of gametocyte viability [5] [µM] | IC50 of gametocyte viability [6] [µM] | IC50 of gametocyte viability [7] [µM] | IC50 of gametocyte viability [8] [µM] | IC50 of gametocyte viability [9] [µM] | IC50 of gametocyte viability [10] [µM]
CC[C@H](C)[C@H](NC(=O)[C@H]([C@@H](C)CC)N(C)C(C)=O)C(=O)N[C@H](C(=O)N[C@@H](CC(C)C)C(=O)[C@@]1(C)CO1)[C@@H](C)O [Epoxomycin] | 0.0128 |  |  |  |  |  |  |  |  | 
Cc1cc2nc3c(=O)[nH]c(=O)nc-3n(C[C@H](O)[C@H](O)[C@H](O)CO)c2cc1C [Flavin mononucleotid (Riboflavin)] | > 12.5 | > 12.5 | > 12.5 | > 12.5 | > 12.5 |  |  |  |  | 
CCCCN(CCCC)CCC(O)c1cc2c(Cl)cc(Cl)cc2c2cc(C(F)(F)F)ccc12 (centres undefined) [Halofantrine] [listing 1 of 2 here] |  |  |  |  |  | 0.00577 | > 12.5 | > 12.5 |  | 
CCCCN(CCCC)CCC(O)c1cc2c(Cl)cc(Cl)cc2c2cc(C(F)(F)F)ccc12 (centres undefined) [Halofantrine] [listing 2 of 2 here] | 0.0075 | 0.00161 | 0.000896 | 0.0233 | 1.51 |  |  |  |  | 
CCN(CCO)CCCC(C)Nc1ccnc2cc(Cl)ccc12 (centres undefined) [Hydroxychloroquine] | > 6.25 | 0.107 | 0.131 | > 4.49 | > 6.25 | 0.104 | > 6.25 | > 6.25 | 0.139 | > 6.25
CC1Cc2c([nH]c3cc(F)c(F)cc23)C2(N1)C(=O)Nc1ccc(Cl)cc12 (centres undefined) [KAF246] | 0.00235 | 0.00139 | 0.00186 | 0.0021 | 0.00177 |  |  |  |  | 
CC1(C)c2nc(-c3ccc(F)cc3)c(Nc3ccc(Cl)cc3)n2CCN1C(=O)CN [KAF(GNF)179] | 0.00336 | 0.341 | 0.0641 | 0.0199 | 0.00915 |  |  |  |  | 
CN(C(=O)c1cn2c(-c3ccc(C#N)cc3)cnc2cn1)c1ccc(C(F)(F)F)cc1 [KAI407] | 0.156 | 0.593 | 0.636 | 0.415 | 0.329 |  |  |  |  | 
CNc1ccc(N(C)C(=O)c2cn3c(-c4ccc(Cl)cc4)cnc3cn2)cc1 [KDU691] | 0.15 | 0.532 | 0.565 | 0.354 | 0.237 |  |  |  |  | 
CCCCN(CCCC)CC(O)c1cc(Cl)cc2c1-c1ccc(Cl)cc1/C2=C/c1ccc(Cl)cc1 (centres undefined) [Lumefantrine] [listing 1 of 2 here] | 0.0523 | 0.0128 | 0.0131 | 0.015 | 0.599 |  |  |  |  | 
CCCCN(CCCC)CC(O)c1cc(Cl)cc2c1-c1ccc(Cl)cc1/C2=C/c1ccc(Cl)cc1 (centres undefined) [Lumefantrine] [listing 2 of 2 here] |  |  |  |  |  | 0.0224 | > 9.77 | > 12.5 | 0.0352 | 0.0227
OC(c1cc(C(F)(F)F)nc2c(C(F)(F)F)cccc12)C1CCCCN1 (centres undefined) [Mefloquine (+ RS)] |  |  |  |  |  | 0.0512 | 1.64 | 6.34 | 0.0471 | 0.0585
O[C@@H](c1cc(C(F)(F)F)nc2c(C(F)(F)F)cccc12)[C@H]1CCCCN1 [Mefloquine (+ RS)] | 0.158 | 0.0379 | 0.039 | 0.078 | 0.579 |  |  |  |  | 
CN(C)c1ccc2nc3ccc(=[N+](C)C)cc-3sc2c1 [Methylene Blue trihydrate] |  |  |  |  |  | 0.0222 | 0.0454 | 1.04 | 0.0164 | 0.0181
CN(C)c1ccc2nc3ccc(N(C)C)cc3[s+]c2c1 [Methylene Blue trihydrate] | 0.258 | 0.0199 | 0.0153 | 0.0133 | 0.0117 |  |  |  |  | 
CC(=O)N[C@@H](C(=O)O)C(C)(C)S [N-acetyl-D-penicillamine] | > 12.5 | > 12.5 | > 12.5 | > 12.5 | > 12.5 |  |  |  |  | 

Structure (SMILES) | IC50 of gametocyte viability [1] [µM] | IC50 of gametocyte viability [2] [µM] | IC50 of gametocyte viability [3] [µM] | IC50 of gametocyte viability [4] [µM] | IC50 of gametocyte viability [5] [µM] | IC50 of gametocyte viability [6] [µM] | IC50 of gametocyte viability [7] [µM] | IC50 of gametocyte viability [8] [µM] | IC50 of gametocyte viability [9] [µM] | IC50 of gametocyte viability [10] [µM]
COc1cc(N[C@H](C)CCCN)c2nccc(C)c2c1Oc1ccc(Cl)c(Cl)c1 [NPC-1161B] [listing 1 of 2 here] |  |  |  |  |  | 5.21 | 6.24 | 5.22 | 6.63 | 4.57
COc1cc(N[C@H](C)CCCN)c2nccc(C)c2c1Oc1ccc(Cl)c(Cl)c1 [NPC-1161B] [listing 2 of 2 here] | 2.86 | 2 | 2.02 | 3.51 | 3.6 |  |  |  |  | 
CC(C)(C)NCc1cc(Nc2ccnc3cc(Cl)ccc23)c2c(c1O)CCCC2 [Naphthoquine] [listing 1 of 2 here] |  |  |  |  |  | 0.0234 | > 4.17 | > 4.17 | 0.0128 | > 4.17
CC(C)(C)NCc1cc(Nc2ccnc3cc(Cl)ccc23)c2c(c1O)CCCC2 [Naphthoquine] [listing 2 of 2 here] | > 4.17 | 0.0251 | 0.0145 | 0.296 | > 4.17 |  |  |  |  | 
C(CN1CCOCC1)Oc2ccc(cc2)[C@@H]3CC[C@@]4(CC3)OO[C@@]5(O4)[C@@H]6CC7C[C@@H](CC5C7)C6 [OZ 439 mesylate] | > 12.5 | 0.0107 | 0.00536 | 0.00342 | 0.0019 |  |  |  |  | 
c1cc([C@H]2CC[C@]3(CC2)OO[C@]2(O3)C3CC4CC(C3)CC2C4)ccc1OCCN1CCOCC1 [OZ 439 mesylate] |  |  |  |  |  | 0.0102 | 0.00553 | > 12.5 | 0.01 | 0.00852
CCc1nc(N)nc(N)c1OCCCOc1ccccc1CCC(=O)O [P218.HCl] | > 12.5 | > 12.5 | > 12.5 | > 12.5 | > 12.5 |  |  |  |  | 
CCN(CC)CCCC(C)Nc1cc(OC)cc2cccnc12 (centres undefined) [Pamaquine (diethlyprimaquine)] | 2.53 | 1.68 | 1.4 | 2.41 | 2.82 | 1.67 | 5.28 | 9.38 | 2.87 | 5.15
N=C(N)c1ccc(OCCCCCOc2ccc(C(=N)N)cc2)cc1 [Pentamidine] [listing 1 of 2 here] |  |  |  |  |  | 0.713 | 1 | 2.36 | 0.878 | 1.19
N=C(N)c1ccc(OCCCCCOc2ccc(C(=N)N)cc2)cc1 [Pentamidine] [listing 2 of 2 here] | 2.14 | 0.397 | 0.591 | 0.697 | 0.813 |  |  |  |  | 
Clc1ccc2c(N3CCN(CCCN4CCN(c5ccnc6cc(Cl)ccc56)CC4)CC3)ccnc2c1 [Piperaquine phosphate] [listing 1 of 2 here] |  |  |  |  |  | 0.0223 | > 4.17 | > 4.17 | 0.0262 | > 4.17
Clc1ccc2c(N3CCN(CCCN4CCN(c5ccnc6cc(Cl)ccc56)CC4)CC3)ccnc2c1 [Piperaquine phosphate] [listing 2 of 2 here] | > 4.17 | 0.018 | 0.0145 | 0.031 | > 4.17 |  |  |  |  | 
COc1cc(NC(C)CCCN)c2ncccc2c1 (centres undefined) [Primaquine] | 6.5 | 2.47 | 2.25 | 5.4 | 5.15 | 3.35 | 9.44 | > 11.3 | 6.41 | 7.96
COc1ccc2nc3cc(Cl)ccc3c(Nc3cc(CN4CCCC4)c(O)c(CN4CCCC4)c3)c2n1 [Pyronaridine phosphate] [listing 1 of 2 here] |  |  |  |  |  | 0.0101 | 3.82 | 3.16 | 0.0125 | 0.315
COc1ccc2nc3cc(Cl)ccc3c(Nc3cc(CN4CCCC4)c(O)c(CN4CCCC4)c3)c2n1 [Pyronaridine phosphate] [listing 2 of 2 here] | 2.08 | 0.0132 | 0.01 | 0.125 | 2.58 |  |  |  |  | 
